Laboratory results published in patent US8980906B2, “Pyridonemorphinan analogs and biological activity on opioid receptors” (Purdue Pharma L.P., priority 2012, dated 2015).

Assays:
κ-opioid receptor = κ-opioid receptor (Homo sapiens (Human), UniProt P41145); test: κ-opioid receptor [35S]GTPγS functional assay, U-2 OS cells; assay type: biochemical; settings: for Emax: relative to U69,593, U-2 OS cells
Experimental: κ-Opioid Receptor Functional Assay Procedures: Functional [^35S]GTPγS binding assays were conducted as follows. κ opioid receptor membrane solution was prepared by sequentially adding final concentrations of 0.026 μg/μl κ membrane protein (in-house), 10 μg/mL saponin, 3 μM GDP and 0.20 nM [^35S]GTPγS to binding buffer (100 mM NaCl, 10 mM MgCl2, 20 mM HEPES, pH 7.4) on ice. The prepared membrane solution (190 μl/well) was transferred to 96-shallow well polypropylene plates containing 10 μl of 20× concentrated stock solutions of agonist prepared in DMSO. Plates were incubated for 30 min at a temperature of about 25° C. with shaking. Reactions were terminated by rapid filtration onto 96-well Unifilter GF/B filter plates (Perkin Elmer, Shelton, Conn.) using a 96-well tissue harvester (Packard) and followed by three filtration washes with 200 μl ice-cold binding buffer (10 mM NaH2PO4, 10 mM Na2HPO4, pH 7.4). Filter plates were subsequently dried at 50° C. for 2-3 hours. Fifty μl/well scintillation cocktail (Perkin Elmer, Shelton, Conn.) was added and plates were counted in a Packard Top-Count for 1 min/well.
κ-Opioid Receptor Functional Data: κ GTP EC50 is the concentration of a compound providing 50% of the maximal response for the compound at a κ receptor.
κ GTP Emax (%) is the maximal effect elicited by a compound relative to the effect elicited by U69,593.
(§1) The following TABLE 3 provides results on the activity response of certain Compounds of the Invention at the μ- and κ-opioid receptors determined as described above using U-2 OS cells.

μ-opioid receptor = μ-opioid receptor (Homo sapiens (Human), UniProt P35372); test: μ-opioid receptor [35S]GTPγS functional assay, U-2 OS cells; assay type: biochemical; settings: for Emax: relative to DAMGO, U-2 OS cells
Experimental: μ-Opioid Receptor Functional Assay Procedures: [^35S]GTPγS functional assays were conducted using freshly thawed μ-receptor membranes prepared in-house from a cell line expressing recombinant μ opioid receptor in a HEK-293, CHO or U-2 OS cell background, or purchased from a commercial source (Perkin Elmer, Shelton, Conn.; or DiscovRx, Fremont, Calif.). Assay reactions were prepared by sequentially adding the following reagents to binding buffer (100 mM NaCl, 10 mM MgCl2, 20 mM HEPES, pH 7.4) on ice (final concentrations indicated): membrane protein (0.026 mg/mL), saponin ([…]), GDP ([…]) and [^35S]GTPγS (0.20 nM; Perkin Elmer, Shelton, Conn.). The prepared membrane solution (190 μl/well) was transferred to 96-shallow well polypropylene plates containing 10 μl of 20× concentrated stock solutions of the agonist [D-Ala^2, N-methyl-Phe^4 Gly-ol^5]-enkephalin (DAMGO) prepared in dimethyl sulfoxide (DMSO). Plates were incubated for 30 min at about 25° C. with shaking. Reactions were terminated by rapid filtration onto 96-well Unifilter GF/B filter plates (Perkin Elmer, Shelton, Conn.) using a 96-well tissue harvester (Perkin Elmer, Shelton, Conn.) followed by three filtration washes with 200 μl of ice-cold wash buffer (10 mM NaH2PO4, 10 mM Na2HPO4, pH 7.4). Filter plates were subsequently dried at 50° C. for 2-3 hours. BetaScint scintillation cocktail (Perkin Elmer, Shelton, Conn.) was added (50 μl/well) and plates were counted using a Packard Top-Count for 1 min/well. Data were analyzed using the sigmoidal dose-response curve fitting functions in GraphPad PRISM v. 3.0, or an in-house function for non-linear, sigmoidal dose-response curve-fitting.
μ-Opioid Receptor Functional Data: μ GTP EC50 is the concentration of a compound providing 50% of the maximal response for the compound at a μ-opioid receptor.
μ GTP Emax (%) is the maximal effect elicited by a compound relative to the effect elicited by DAMGO, a standard μ agonist. Generally, the μ GTP Emax (%) value measures the efficacy of a compound to treat or prevent pain or other Conditions.
as §1

Compound | EC50 (κ-opioid receptor) [µM] | Emax (κ-opioid receptor) [%] | EC50 (μ-opioid receptor) [µM] | Emax (μ-opioid receptor) [%]
CN1CC[C@]23Cc4[nH]c(=O)c(C(=O)N5CCCC5)cc4C[C@@]2(O)[C@H]1Cc1ccc(O)cc13 [Compound 48, (6R,6aS,12aR)-2,6a-dihydroxy-15-methyl-9-(pyrrolidine-1-carbonyl)-6a,7,11,12-tetrahydro-5H-6,12a-(epiminoethano)naphtho[2,1-g]quinolin-10(6H)-one] | 0.226 ± 0.00441 | 90.3 ± 5.46 | 0.0974 ± 0.00435 | 82.7 ± 0.88
CC(C)CCNC(=O)c1cc2c([nH]c1=O)C[C@]13CCN(C)[C@H](Cc4ccc(O)cc41)[C@]3(O)C2 [Compound 49, (6R,6aS,12aR)-2,6a-dihydroxy-N-isopentyl-15-methyl-10-oxo-6,6a,7,10,11,12-hexahydro-5H-6,12a-(epiminoethano)naphtho[2,1-g]quinoline-9-carboxamide] | 0.204 ± 0.0681 | 63 ± 1.73 | 0.445 ± 0.0638 | 80 ± 3.61
C[C@H](NC(=O)c1cc2c([nH]c1=O)C[C@]13CCN(C)[C@H](Cc4ccc(O)cc41)[C@]3(O)C2)C(N)=O [Compound 50, (6R,6aS,12R)—N—((S)-1-amino-1-oxopropan-2-yl)-26a-dihydroxy-15-methyl-10-oxo-6,6a,7,10,11,12-hexahydro-5H-6,12a-(epiminoethano)naphtho[2.1-g]quinoline-9-carboxamide] | 1.07 ± 0.157 | 54 ± 2.74 | 0.204 ± 0.0113 | 95 ± 1.15
CN1CC[C@]23Cc4[nH]c(=O)c(C(=O)N[C@@H](Cc5ccccc5)C(N)=O)cc4C[C@@]2(O)[C@H]1Cc1ccc(O)cc13 [Compound 51, (6R,6aS,12R)—N—((S)-1-amino-1-oxo-3-phenylpropan-2-yl)-2,6a-dihydroxy-15-methyl-10-oxo-6,6a,7,10,11,12-hexahydro-5H-6,12a-(epiminoethano)naphtho[2.1-g]quinoline-9-carboxamide] | 0.488 ± 0.0794 | 39.3 ± 3.84 | 0.126 ± 0.0143 | 97.7 ± 1.45
CC(C)C[C@H](NC(=O)c1cc2c([nH]c1=O)C[C@]13CCN(C)[C@H](Cc4ccc(O)cc41)[C@]3(O)C2)C(N)=O [Compound 52, (6R,6aS,12R)—N—((S)-1-amino-4-methyl-1-oxopentan-2-yl)-2,6a-dihydroxy-15-methyl-10-oxo-6,6a,7,10,11,12-hexahydro-5H-6,12a-(epiminoethano)naphtho[2.1-g]quinoline-9-carboxamide] | 3.79 ± 1.57 | 28.8 ± 2.17 | 0.244 ± 0.0108 | 97.7 ± 1.45
CN1CC[C@]23Cc4[nH]c(=O)c(C(=O)N5CCC[C@H]5C(N)=O)cc4C[C@@]2(O)[C@H]1Cc1ccc(O)cc13 [Compound 53, (S)-1-((6R,6aS,12R)-2,6a-dihydroxy-15-methyl-10-oxo-6,6a,7,10,11,12-hexahydro-5H-6,12a-(epiminoethano)naphtho[2.1-g]quinoline-9-carbonyl)pyrrolidine-2-carboxamide] | 0.602 ± 0.173 | 68.3 ± 3.38 | 0.123 ± 0.00615 | 84 ± 2.08
O=C(c1cc2c([nH]c1=O)C[C@]13CCN(CC4CC4)[C@H](Cc4ccc(O)cc41)[C@@H]3C2)N1CCCC1 [Compound 55, (6R,6aS,12R)-15-(cyclopropylmethyl)-2-hydroxy-9-(pyrrolidine-1-carbonyl)-6,6a,7,12-tetrahydro-5H-6,12a-(epiminoethano)naphtho[2.1-g]quinolin-10(11H)-one] | 0.00033 ± 3.7e-05 | 86 ± 2.68 | 0.00079 ± 0.00031 | 17.6 ± 0.68
O=C(c1ccccc1)c1cc2c([nH]c1=O)C[C@]13CCN(CC4CC4)[C@H](Cc4ccc(O)cc41)[C@]3(O)C2 [Compound 59, (6R,6aS,12R)-9-benzoyl-15-(cyclopropylmethyl)-2,6a-dihydroxy-6,6a,7,12-tetrahydro-5H-6,12a-(epiminoethano)naphtho[2.1-g]quinolin-10(11H)-one] | 17.9 ± 7.55 | 16.8 ± 1.44 | > 20 | 2.5
